Results on one compound are retold here after US8633165B2, “Neuroprotective effects of 2DG in traumatic brain injury” (Wisconsin Alumni Research Foundation, priority 2010, dated 2014).

The test system of series [1] is rats with TBI induced by CCI in fronto-parietal and temporo-parietal cortex. Kind of series: Lateral ventricle volume by T2W MRI after TBI induced by controlled cortical impact (CCI). The note with it: for proportional change in lateral ventricle volume from 1 week to 1 month following injury: in vivo T2W MRI, 2DG 40 mg/kg IP 30 min prior to CCI, then 250 mg/kg immediately after and twice daily for 2 weeks, change significantly greater for saline than 2DG (p=0.015). Format: in vivo, rat. The text has this: “Fast” rats and “slow” rats from the 9th-11th generations selected by these procedures were subjected to TBI induced by the method of controlled cortical impact (CCI) using published protocols (see Dixon et al., 1991, J. Neuro. Meth. 39: 253-262). During the induction of TBI by CCI, the rats were deeply anesthetized with isoflurane (3% for induction, 1.5-2.5% for maintenance) and were placed in a stereotaxic frame. After craniotomy with the dura intact, anesthesia was reduced to 1% isoflurane for a 5-min equilibration period and CCI was performed over temporo-parietal cortex (−1 to −6 mm from bregma, below lateral skull ridge) and fronto-parietal cortex (+5.3 to −0.3 mm from bregma, below lateral skull ridge), which are more and less likely, respectively, to damage the hippocampus and amygdala. Brain lesions were induced by a digitally-controlled contusion device using a pneumatically driven impactor with a sterilized rounded stainless steel tip (3-4 mm in diameter) which compresses the cortex with a specified velocity, depth, and dwell time varied to induce a range of injury severity (ranging from mild, with parameters of 4.0 m/s, 1.0 mm deformation, dwell time 50 mS, to severe, at 6.0 m/s, 2.5 mm deformation, dwell time 50 mS). […]
The effects of 2DG on TBI induced by CCI in fronto-parietal and temporo-parietal cortex were evaluated in “fast” kindling-susceptible and “slow” kindling-resistant rats. […]
(§1) The effects of 2DG treatment on the location, severity, and progression of induced cortical and subcortical damage were assessed in serial in vivo magnetic resonance imaging (MRI) and diffusion tensor imaging (DTI) studies at 1 week, 1 month, and 6 months after TBI as well as high-resolution ex vivo DTI of brains harvested from the same rats following the final in vivo imaging session. DTI is an advanced MRI modality that offers a unique view of the brain in its ability to report quantitative microstructural information at the whole-brain and in vivo scales. […]

The test system of another series is ischemic rat. The note with it: Combs et al., 1986; cited from earlier work.
The next series has as its system mice. The conditions noted are these: Stafstrom et al., 2009; cited from earlier work.
The test system of series [2] is rats. The conditions noted are these: perforant path and olfactory bulb stimulation in rats; Garriga-Canut et al., 2006; Stafstrom et al., 2009; cited from earlier work.
Series [3] concerns rats with TBI induced by CCI in fronto-parietal and temporo-parietal cortex. Kind of series: Hippocampal DTI measures (MD, FA laterality index) after TBI induced by CCI. The conditions noted are these: for in vivo hippocampal FA laterality index (LRI): fast and slow kindling strains, strain by treatment interaction p=0.088, saline vs 2DG at 1 month p=0.08; for change in in vivo ipsilateral hippocampal MD between 1 week and 6 months: paired t-test: saline p=0.0026, 2DG p=0.289, treatment by time interaction p=0.064. Format: in vivo, rat. The text has this: (§2) “Fast” rats and “slow” rats from the 9th-11th generations selected by these procedures were subjected to TBI induced by the method of controlled cortical impact (CCI) using published protocols (see Dixon et al., 1991, J. Neuro. Meth. 39: 253-262). During the induction of TBI by CCI, the rats were deeply anesthetized with isoflurane (3% for induction, 1.5-2.5% for maintenance) and were placed in a stereotaxic frame. After craniotomy with the dura intact, anesthesia was reduced to 1% isoflurane for a 5-min equilibration period and CCI was performed over temporo-parietal cortex (−1 to −6 mm from bregma, below lateral skull ridge) and fronto-parietal cortex (+5.3 to −0.3 mm from bregma, below lateral skull ridge), which are more and less likely, respectively, to damage the hippocampus and amygdala. Brain lesions were induced by a digitally-controlled contusion device using a pneumatically driven impactor with a sterilized rounded stainless steel tip (3-4 mm in diameter) which compresses the cortex with a specified velocity, depth, and dwell time varied to induce a range of injury severity (ranging from mild, with parameters of 4.0 m/s, 1.0 mm deformation, dwell time 50 mS, to severe, at 6.0 m/s, 2.5 mm deformation, dwell time 50 mS). Anesthesia was then administered at maintenance levels (1.5-2.5%), the craniotomy and wound were closed, and the rats were allowed to recover. The location, severity, and progression of induced cortical and subcortical damage was examined by serial in vivo magnetic resonance imaging (MRI) and diffusion tensor imaging (DTI) techniques at 1 week, 1 month, and 6 months after TBI.
(§3) The effects of 2DG on TBI induced by CCI in fronto-parietal and temporo-parietal cortex were evaluated in “fast” kindling-susceptible and “slow” kindling-resistant rats. Half of the rats from these strains received 2DG at 40 mg/kg IP 30 min prior to CCI, and then 250 mg/kg immediately after and twice daily for 2 weeks. These rats were compared to control groups with TBI induced by CCI that were treated only with an equivalent volume of saline. Both treatment groups were also compared to sham-injured rats that underwent all aspects of the experimental manipulations except for CCI.
The effects of 2DG treatment on the location, severity, and progression of induced cortical and subcortical damage were assessed in serial in vivo magnetic resonance imaging (MRI) and diffusion tensor imaging (DTI) studies at 1 week, 1 month, and 6 months after TBI as well as high-resolution ex vivo DTI of brains harvested from the same rats following the final in vivo imaging session. DTI is an advanced MRI modality that offers a unique view of the brain in its ability to report quantitative microstructural information at the whole-brain and in vivo scales. The most commonly reported DTI indices are fractional anisotropy (FA), which characterizes the “directionalness” of tissue structure (e.g. high in white matter and low in grey matter and CSF) and mean diffusion (MD), which characterizes water status (“free” or “restricted”) due to cellular barriers (e.g. high in CSF and low in tissue). Both indices are known to be sensitive to damage and other structural changes such as tissue/circuit reorganization. This makes DTI an attractive modality to investigate disorders with known or hypothesized structural abnormalities such as TBI.
MRI scanning was performed using a Varian 4.7 T scanner and a quadrature birdcage volume coil was used to transmit and receive the MRI signal. […]

Another series has as its system hippocampal brain slices. The conditions noted are these: evoked by 7.5 mM [K+]o, 4-amino-pyridine, bicuculline, DHPG; Stafstrom et al., 2009; cited from earlier work.
Series [4] concerns rats with TBI induced by CCI in fronto-parietal and temporo-parietal cortex. Kind of series: Corpus callosum and fornix DTI (FA) after TBI induced by CCI. The class given is in vivo, rat. The conditions noted are these: for ex vivo corpus callosum (CC) FA: CCI location by treatment interaction p=0.038, fronto-parietal CCI.
Excerpt: as §2, §3, §1

For series [5] the following is noted: Mattson, 1999; cited from earlier work.
Series [6] relates to rats. The conditions noted are these: rat, in vivo, 250 mg/kg. The protocol:
For example, dosage amount and interval of 2-DG administration can be adjusted individually to reduce incidence, frequency, duration or intensity of deleterious sequellae of TBI, particularly PTE, using doses of 40 mg/kg or less to higher as tolerated to reduce seizure frequency and minimize toxicity. […] A practitioner skilled in the art can adjust dosage in the range of 2-250 mg/kg and the timing of administration to produce prolonged neuroprotectant effects. Efficacious dosage amounts can be adjusted in children and adults, for establishing effective dosage levels.

SMILES strings stand for the structures. Entries after “also recorded” stand apart in the source; their conditions may differ.

As for `O=CC[C@@H](O)[C@H](O)[C@H](O)CO` [2DG, 2-deoxy-D-glucose], the “ex vivo lateral ventricle volumes” value in series [1] (brains harvested after 6 months, ANOVA treatment main effect p=0.16, strain by treatment interaction p=0.06, greater volumes for saline, most evident in slow-kindled strain) is listed as “protection from gross tissue loss”. Besides, the entries for the “proportional change in lateral ventricle volume from 1 week to 1 month following injury” value in [1] and in [1] (listed as 2-DG) were “reduced progressive volumetric changes” and “p<0.05 for the saline but not the 2-DG treated group”, respectively. Also, in the series on ischemic rat, the “brain damage initiated by ischemia” value is recorded as “reduced brain damage”. Besides, the “anticonvulsant activity against seizures evoked by 6 Hz and audiogenic stimulation” value in the series with mice was “acute in vivo anticonvulsant activity”. The “slowing of progression of kindled seizures” value in the series with rats [2] is 2 fold. Besides, the “ex vivo ipsilateral hippocampal MD” value in series [3] (ANOVA main effect for treatment p=0.002, compared with saline and sham-injured controls) is recorded as “restored MD measurements to the range of normal values observed in controls”. Further, the “in vivo hippocampal FA laterality index (LRI)” value in series [3] was “appeared to abolish the pattern of increased LRI over 1 week to 1 month in both strains”; in series [3] (listed as 2-DG), “reduces FA LRI in both strains”. Also, the “change in in vivo ipsilateral hippocampal MD between 1 week and 6 months” value in [3] is given as “not for the 2DG treated groups”; in series [3] (listed as 2-DG) it was “no significant change”. Besides, the “epileptic discharges evoked in hippocampal brain slices” value in the series with hippocampal brain slices is on record as “acute in vitro reduction of epileptic discharges”. Also, the “ex vivo corpus callosum (CC) FA” value in [4] is on record as “FA was highest for fronto-parietal, 2DG treated rats”; in [4] (listed as 2-DG), “reduced in all groups except for 2-DG treated rats with fronto-parietal CCI”. In series [4] (fronto-parietal CCI vs temporo-parietal CCI, 2-DG vs saline), the “ex vivo fornix FA” value is “reduced in all groups except for 2-DG treated rats with fronto-parietal CCI”. For the same compound, in series [4] (paired t-test: 2DG p=0.0099, saline p=0.8396, treatment by time interaction p=0.073), the “in vivo anterior corpus callosum (aCC) FA, change from one week to six months” value is given as “increase in aCC FA by 6 months post-CCI that nearly reaches control values; also recorded: significant change from one week to six months”. Moreover, the “brain damage initiated by seizures induced by kainic acid” value in series [5] is given as “reduced brain damage”. The tolerability entry in the series with rats [6] was “well tolerated”.
